Source: paper PMC5382548 (Scientific Reports, 2015)
Several values for one entry are separate records, joined by “and”; a condition that tells them apart may be missing. Equal values may be shown once.

Assays:
MCF7 (breast) = assay: SRB short-term cytotoxicity assay, MCF7; assay type: cell-based; details: Homo sapiens, 96 h
Description: Short-term anti-proliferative assays were carried out by two different assays using a panel of human cancer and non-malignant human cell lines. […] The transformed human embryonic kidney cell line HEK293T (wt KRAS) was sensitive to all tested drugs, including TMPyP4, a cationic porphyrin established as a G4 ligand, as well as the anticancer drug 5-fluorouracil (5-FU).
Human cell lines, breast carcinoma (MCF7), lung carcinoma (A549), pancreatic cancer (MIA PaCa2, Panc-1), immortalised telomerase-negative human lung fibroblast (ALT) and normal human lung fibroblast (WI-38), were all purchased from American Type Cell Culture (ATCC). Cell lines were maintained in appropriate medium supplemented with 10% fetal bovine serum (Invitrogen, UK), 2 mM L-glutamine (Invitrogen, Netherlands), and other components as specified by the suppliers. All cell lines were maintained at 37°C, 5% CO2, and routinely passaged. Short-term growth inhibition was measured using the SRB assay as described previously[43] (additional details described in Supplementary Information). […]
Sulforhodamine B (SRB) short-term cytotoxicity assay
Cells were seeded at appropriate densities into the wells of 96 well plates in their corresponding medium and incubated overnight to allow the cells to attach. Subsequently cells were exposed to various concentrations of freshly made solutions of drugs and incubated for 96 h. The cells were subsequently fixed with ice-cold trichloacetic acid (TCA) (10%, w/v) for 30 min and stained with 0.4% SRB dissolved in 1% acetic acid for 15 min.
All incubations were carried out at room temperature except for TCA fixation, which was at 4 °C. […]
After electrophoretic transfer onto nitrocellulose membranes, immunoblots were blocked with 5% milk solution, and next incubated overnight at 4 °C with primary mouse monoclonal antibody reactive to KRAS/p53 (#sc-30/sc-126; Santa Cruz Biotechnology Inc., Santa Cruz, CA, USA). […] Steady-state protein levels were expressed as mean ±SEM from at least three independent experiments.

[1] = tested on: F21T (DNA, G4) GGGTTAGGGTAGGGTTAGGG; assay: FRET melting; details: 60 mM K+; K-cacodylate pH 7.4; 0.2 μM DNA, 1 μM compound; SD ≤ 0.2
KRAS21R G4 = assay: Spectrofluorimetric titration with KRAS21R G4; assay type: binding, human; details: for Apparent association constant Ka (KRAS21R): ligand 1 μM, K-cacodylate pH 7.4, 60 mM K+, 25°C; for Hill constant h (KRAS21R): one-site saturation binding Hill slope model
Description: To characterize the binding of IQc to DNA structures, spectrofluorimetric titration assays were performed with the non-substituted (2a), mono-alkyldiamine (2d) and di-alkyldiamine (3e) derivatives using un-labelled KRAS21R G4 and 26ds-DNA. […] Their fluorescence intensity was proportional to concentration up to 10 μM. […] The fluorescence titration data (Figure 4) was fitted to the Scatchard model[25] (Figure 4, insets). […] Scatchard plots of 2d and 3e (Figure 4b–c, insets) are all concave-down nonlinear curves, which may denote different positive cooperative binding sites in G4, with more than one equivalent and non-independent binding sites. […] Therefore, association constants for 2d and 3e were obtained from the one-site saturation binding Hill slope model (Figure 4b–c). These are apparent binding constants, i.e. they are macroscopic Ka which reflect the total binding.
Figure 4 Fluorescence data of (a) 2a, (b) 2d, and (c) 3e (1 μM) in K-cacodylate buffer (pH 7.4, containing 60 mM K^+) at 25°C, titrated with KRAS21R and HT21 G4s, and 26ds, fitted to the saturation binding equations and Scatchard model (insets).
Fluorescence data were collected with a λex of 290 nm and a λem around 475 nm for 2d and 3e, and a λex of 275 nm and a λem around 460 for 2a. Test compounds were prepared as 1 mM in HPLC-grade water (10% DMSO) stock solutions. The rest of the dilutions were performed using K-cacodylate buffer (pH = 7.4, containing 60 mM K^+). The G4 single-strand oligonucleotide sequences were initially diluted from the storage solution (100 μM) with K-cacodylate, to a stock solution at 25 μM. The titration data were obtained by adding aliquots of previously annealed G4 (heating to 95°C for 10 min, followed by slow cooling to RT) to a solution of the indolo[3,2-c]quinoline ligand (1 μM) in K-cacocylate buffer at 25°C (additional details in Supplementary Information).
Figure S7. Fluorescence titrations of 1 μM indolo[3,2-c]quinoline 2d (1µM) with KRAS21R G4 and 26ds DNA in K-cacodylate buffer pH 7.4, containing 60 mM K+ at 25 °C.
Concentration of DNA increase from the top to the bottom (grey lines) Excitation […]
Figure S8. Fluorescence titrations of 1 μM indolo[3,2-c]quinoline 3e (1µM) with KRAS21R […]
The titration data obtained were used to construct Scatchard plots with the concentration of bound and free ligand (Cb and Cf, respectively). […]
number of moles of ligand bound to 1 mol of G4 (r = Cb/CDNA) were calculated.
Saturation binding isotherms were represented as Scatchard plots, by plotting r/Cf versus r and evaluated according to the model of McGhee and von Hippel. Dissociation constants were determined by fitting the titration experimental data to one-site saturation binding equation or to one-site saturation binding to the Hill slope equation supplied with the GraphPad PRISM software (GraphPad, Version 5.00, San Diego, CA).
Association constants (Ka) were calculated from dissociation constants (Kd). Scatchard lines represented in the Scatchard plots were calculated from the data fitting to the binding equations (x = 0, y = Fmax/Kd; x = Fmax , y = 0; slope = -Ka). […]

Compound	IC50 (MCF7 (breast))	ΔTm [1]	Apparent association constant Ka (KRAS21R) (KRAS21R G4)	Hill constant h (KRAS21R) (KRAS21R G4)
Cn1cc2c3ccccc3nc-2c2cc(Br)ccc21 [2a, 2-bromo-5-methyl-indolo[3,2-c]quinoline]	2880 nM	5.6 °C	1.7 × 10^6 M^−1 and 1.7/-- × 10^6 M^−1	
CCN(CC)CCCNc1ccc2c(c1)c1[nH]c3ccccc3c1c[n+]2C [2d]	2400 nM	17.7 °C	4.4e+06 M⁻¹	2.0
CCN(CC)CCCNc1ccc2c(c1)[nH]c1c2c[n+](C)c2ccc(NCCCN(CC)CC)cc12.[Cl-] [3e]	11400 nM	30.7 °C	8.6e+06 M⁻¹	2.4
